Like-named read-outs stand apart in the source and are kept apart here.
How the values were obtained:
[1] = molecular target: T1, recombinant human CI-M6PR protein (Homo sapiens, UniProt P11717); assay: Human CI-M6PR binding assay (ELISA); settings: for EC50: antibody conjugate; for binding affinity to M6PR compared to Compound I-7: conjugates of ligand linkers; for binding affinity for M6PR, rank among the conjugates tested: matuzumab conjugates, ELISA, FIGS. 19A-19F
T1 construct: purchased R&D 6418-GR-050
Experimental: Nunc black solid bottom MaxiSorp plates were allowed to incubate overnight at 4° C. coated with […] of recombinant human CI-M6PR protein (R&D, 6418-GR-050) in 50 μL PBS. The next day, coating was decanted and plates were washed 3× with PBS. Wells were blocked with 350 μL of 3% BSA-PBS for 1 hour at room temperature. […] 50 μL of diluted conjugates were added to the plate and allowed to incubate at room temperature for 2 hours. After incubation, solutions in plate were decanted and washed with 350 μL of 0.05% PBS-Tween20 three times, drying the plate each wash on a clean paper towel. 50 μL of peroxidase AffiniPure Mouse Anti-Human IgG (Jackson Immuno, 209-035-088) diluted in 3% BSA-PBS to […] was added to the plate and allowed to incubate for 1 hour at room temperature in the dark. After incubation, solutions in plate were decanted and washed with 350 μL of 0.05% PBS-Tween20 3 times, drying the plate each wash on a clean paper towel. […] 50 μL of QuantaBlu solution was added to wells and allowed to incubate for 5-10 minutes at room temperature. After incubation, plates were read on a Perkin Elmer EnVision using photometric 340 and Umbelliferone 460 filter sets for excitation and emission, respectively. Data analysis and non-linear curve-fitting was performed using GraphPad Prism.

Hep G2 cells = assay: Conjugate-mediated uptake of IgG2a into HepG2 cells; type: cell-based, human; settings: one hour incubation, FIG. 25; average loading (816), DAR4 (817), DAR4 (520)
Experimental: The uptake of antibody conjugates of exemplary M6PR or ASGPR binding compounds was assessed in Hep G2 cells, using a method similar to that described in Example 79.

Jurkat cells = assay: Conjugate-mediated uptake of IgG2a-Alexa488 into Jurkat cells (flow cytometry); type: cell-based; settings: for uptake of IgG2a-Alexa488 into Jurkat cells: anti-IgG2a conjugates, 1 hour and 24 hours, FIGS. 21-22
Experimental: The anti-IgG2a conjugates were bound to IgG2a-Alexa488, as follows: equal molar ratios of anti-IgG2a and IgG2a-Alexa488 were added in tissue culture media for 30 minutes at room temperature. The resulting anti-IgG2a:IgG2a antibody-Alexa488 compositions were added to Jurkat cells (100 k cells/50 ul per well, n=2), and Alexa488 fluorescence levels were measured (via Alexa488 measurement) at 1 hour and 24 hours by flow cytometry. Because Alexa488 accumulates in cells, this presents a way to measure total intracellular uptake by cells over time.

[2] = Serum pharmacokinetic analysis of rIgG1 (anti-IgG2a) antibody conjugates; type: in vivo; settings: C57B6 mice, intravenous, 10 μg/mouse, 0.5-24 hours, FIGS. 20A-20C
Experimental: A pharmacokinetic analysis of the rIgG1 (anti-IgG2a) antibody conjugates described in the previous example was performed in mice. In particular, C57B6 mice were intravenously administered each rIgG1 antibody conjugate at 10 μg/mouse (5 mice per group). Blood was collected at 0.5, 1, 2, 6, and 24 hours and serum rIgG1 was analyzed using an ELISA kit (Abcam) according to the manufacturer's instructions. Samples were run across 3 different plates with unconjugated rIgG1 controls (UNLB-anti-IgG2a rIgG1) included on all 3 plates.

[3] = average loading DAR 9, FIG. 23, read-out: EC50 (nM) in M6PR binding assay
[4] = average loading DAR 9.5, FIG. 23, read-out: EC50 (nM) in M6PR binding assay

O=C(CCCCCc1cn(CCOCCOCCOCCOCCC(=O)Oc2c(F)c(F)c(F)c(F)c2F)nn1)Nc1ccc(O[C@H]2O[C@H](CCP(=O)(O)O)[C@@H](O)[C@H](O)[C@@H]2O)cc1 [513 (I-39)]
EC50 [1, 3]: 0.186 nM

O=C(CCOCCn1cc(CCCCNC(=S)Nc2ccc(O[C@H]3O[C@H](CCP(=O)(O)O)[C@@H](O)[C@H](O)[C@@H]3O)cc2)nn1)Oc1c(F)c(F)c(F)c(F)c1F [519 (I-47)]
EC50 [1, 4]: 0.266 nM

O=C(CCOCCOCCOCCOCCn1cc(CCCCNC(=S)Nc2ccc(O[C@H]3O[C@H](CCP(=O)(O)O)[C@@H](O)[C@H](O)[C@@H]3O)cc2)nn1)Oc1c(F)c(F)c(F)c(F)c1F [520 (I-7)]
EC50 ([1]; additional M6PR binding assays, average loading DAR 4, read-out: EC50 (nM) in M6PR binding assay): 0.412 nM | EC50 ([1]; average loading DAR 2, FIG. 23, read-out: EC50 (nM) in M6PR binding assay): 2.6 nM | EC50 ([1]; average loading DAR 4, FIG. 23, read-out: EC50 (nM) in M6PR binding assay): 0.221 nM | EC50 [1, 3]: 0.217 nM | uptake into HepG2 cells (cell fluorescence versus conjugate concentration) (Hep G2 cells): comparable HepG2 cellular uptake

O=C(CCOCCn1cc(COCCOCCOCCNC(=S)Nc2ccc(O[C@H]3O[C@H](CCP(=O)(O)O)[C@@H](O)[C@H](O)[C@@H]3O)cc2)nn1)Oc1c(F)c(F)c(F)c(F)c1F [522 (I-49)]
EC50 ([1]; average loading DAR 11, FIG. 23, read-out: EC50 (nM) in M6PR binding assay): 0.227 nM

O=C(CCOCCOCCOCCOCCOCCOCCOCCOCCn1cc(CCCCNC(=S)Nc2ccc(O[C@H]3O[C@H](CCP(=O)(O)O)[C@@H](O)[C@H](O)[C@@H]3O)cc2)nn1)Oc1c(F)c(F)c(F)c(F)c1F [526 (I-48)]
EC50 ([1]; average loading DAR 10, FIG. 23, read-out: EC50 (nM) in M6PR binding assay): 0.186 nM

C[C@H](NC(=O)CCCn1cc(CCCCNC(=S)Nc2ccc(O[C@H]3O[C@H](CCP(=O)(O)O)[C@@H](O)[C@H](O)[C@@H]3O)cc2)nn1)C(=O)N[C@@H](C)C(=O)N[C@@H](C)C(=O)NCCOCCOCCOCCOCCC(=O)Oc1c(F)c(F)c(F)c(F)c1F [528 (I-51)]
EC50 ([1]; EC50 (nM) in M6PR binding assay, additional M6PR binding assays, average loading DAR 2): 4.44 nM | EC50 ([1]; EC50 (nM) in M6PR binding assay, additional M6PR binding assays, average loading DAR 8): 0.301 nM | EC50 ([1]; EC50 (nM) in M6PR binding assay, average loading DAR 9.5, FIG. 23): 0.199 nM | uptake into Jurkat cells, average loading DAR9 versus lower average loading DAR2 (Jurkat cells; one hour incubation, FIG. 24): greater uptake

O=C(NCCCCc1cn(CCOCCOCCOCCOCCC(=O)Oc2c(F)c(F)c(F)c(F)c2F)nn1)Nc1ccc(O[C@H]2O[C@H](CCP(=O)(O)O)[C@@H](O)[C@H](O)[C@@H]2O)cc1 [529 (I-38)]
EC50 [1, 4]: 0.194 nM

O=C(CCOCCOCCOCCOCCn1cc(CCCCNC(=S)Nc2ccc(O[C@H]3O[C@H](CC(C(=O)O)C(=O)O)[C@@H](O)[C@H](O)[C@@H]3O)cc2)nn1)Oc1c(F)c(F)c(F)c(F)c1F [537 (I-66)]
EC50 ([1]; additional M6PR binding assays, average loading DAR 8, read-out: EC50 (nM) in M6PR binding assay): 2.31 nM | EC50 [1, 3]: 3.36 nM

O=C(CCOCCOCCOCCN(CCOCCOCCOCCn1cc(CCCCNC(=S)Nc2ccc(O[C@H]3O[C@H](CCP(=O)(O)O)[C@@H](O)[C@H](O)[C@@H]3O)cc2)nn1)CCOCCOCCOCCn1cc(CCCCNC(=S)Nc2ccc(O[C@H]3O[C@H](CCP(=O)(O)O)[C@@H](O)[C@H](O)[C@@H]3O)cc2)nn1)NCCN1C(=O)C=CC1=O [706 (I-41)]
EC50 ([1]; additional M6PR binding assays, maleimide-Cys conjugation, read-out: EC50 (nM) in M6PR binding assay): 0.271 nM

O=C(CCCn1cc(CCCCNC(=S)Nc2ccc(O[C@H]3O[C@H](CCP(=O)(O)O)[C@@H](O)[C@H](O)[C@@H]3O)cc2)nn1)N[C@@H](CCCCn1cc(CCCCNC(=S)Nc2ccc(O[C@H]3O[C@H](CCP(=O)(O)O)[C@@H](O)[C@H](O)[C@@H]3O)cc2)nn1)C(=O)N[C@@H](CCCCn1cc(CCCCNC(=S)Nc2ccc(O[C@H]3O[C@H](CCP(=O)(O)O)[C@@H](O)[C@H](O)[C@@H]3O)cc2)nn1)C(=O)N[C@@H](CCCCn1cc(CCCCNC(=S)Nc2ccc(O[C@H]3O[C@H](CCP(=O)(O)O)[C@@H](O)[C@H](O)[C@@H]3O)cc2)nn1)C(=O)NCCOCCOCCOCCOCCC(=O)Oc1c(F)c(F)c(F)c(F)c1F [728 (I-52)]
EC50 ([1]; additional M6PR binding assays, average loading DAR 6, read-out: EC50 (nM) in M6PR binding assay): 0.28 nM

CC(=O)N[C@H]1[C@H](OCCCCC(=O)NCCCNC(=O)CCOCC(COCCC(=O)NCCCNC(=O)CCCCO[C@@H]2O[C@H](CO)[C@H](O)[C@H](O)[C@H]2NC(C)=O)(COCCC(=O)NCCCNC(=O)CCCCO[C@@H]2O[C@H](CO)[C@H](O)[C@H](O)[C@H]2NC(C)=O)NC(=O)CCCCCCCCCCC(=O)Oc2c(F)c(F)c(F)c(F)c2F)O[C@H](CO)[C@H](O)[C@@H]1O [816 (ASGPR compound I-124)]
uptake into HepG2 cells (cell fluorescence versus conjugate concentration) (Hep G2 cells): comparable HepG2 cellular uptake

CC(=O)N[C@H]1[C@H](OCCCCC(=O)NCCCNC(=O)CCOCC(COCCC(=O)NCCCNC(=O)CCCCO[C@@H]2O[C@H](CO)[C@H](O)[C@H](O)[C@H]2NC(C)=O)(COCCC(=O)NCCCNC(=O)CCCCO[C@@H]2O[C@H](CO)[C@H](O)[C@H](O)[C@H]2NC(C)=O)NC(=O)CCCCCCCCCCCN2C(=O)C=CC2=O)O[C@H](CO)[C@H](O)[C@@H]1O [817 (ASGPR compound I-123), N-[1,3-bis(2-{[3-(5-{[(2R,3R,4R,5R,6R)-3-acetamido-4,5-dihydroxy-6-(hydroxymethyl)oxanyl]oxy}pentanamido)propyl]carbamoyl}ethoxy)-2-[(2-{[3-(5-{[(2R,3R,4R,5R,6R)acetamido-4,5-dihydroxy-6-(hydroxymethyl)oxanyl]oxy}pentanamido)propyl]carbamoyl}ethoxy)methyl]propan-2-yl]-12-(2,5-dioxo-2,5-dihydro-1H-pyrrol-1-yl)dodecanamide]
uptake into HepG2 cells (cell fluorescence versus conjugate concentration) (Hep G2 cells): comparable HepG2 cellular uptake

O=C(CCOCCn1cc(CCO[C@H]2O[C@H](CCP(=O)(O)O)[C@@H](O)[C@H](O)[C@@H]2O)nn1)Oc1c(F)c(F)c(F)c(F)c1F [Compound I-11]
binding affinity to M6PR compared to Compound I-7 [1]: weaker binding affinity | half life (serum rIgG1) compared to Compound I-7 conjugate [2]: longer half life | uptake of IgG2a-Alexa488 into Jurkat cells (Jurkat cells): sufficiently robust uptake

O=C(CCOCCOCCOCCN(CCOCCOCCOCCn1cc(CCC[C@H]2O[C@H](CCP(=O)(O)O)[C@@H](O)[C@H](O)[C@@H]2O)nn1)CCOCCOCCOCCn1cc(CCO[C@H]2O[C@H](CCP(=O)(O)O)[C@@H](O)[C@H](O)[C@@H]2O)nn1)Oc1c(F)c(F)c(F)c(F)c1F [Compound I-12]
binding affinity to M6PR compared to Compound I-7 [1]: weaker binding affinity | half life (serum rIgG1) compared to Compound I-7 conjugate [2]: longer half life | uptake of IgG2a-Alexa488 into Jurkat cells (Jurkat cells): sufficiently robust uptake

B1: Compound I-7 (d8): "matuzumab conjugates (matuzumab-Compound I-7(d4), matuzumab-Compound I-7(d8) ..." (conjugate)
heavy: QVQLVQSGAEVKKPGASVKVSCKASGYTFTSHWMHWVRQAPGQGLEWIGEFNPSNGRTNYNEKFKSKATMTVDTSTNTAYMELSSLRSEDTAVYYCASRDYDYAGRYFDYWGQGTLVTVSSASTKGPSVFPLAPSSKSTSGGTAALGCLVKDYFPEPVTVSWNSGALTSGVHTFPAVLQSSGLYSLSSVVTVPSSSLGTQTYICNVNHKPSNTKVDKKVEPKS
light: DIQMTQSPSSLSASVGDRVTITCSASSSVTYMYWYQQKPGKAPKLLIYDTSNLASGVPSRFSGSGSGTDYTFTISSLQPEDIATYYCQQWSSHIFTFGQGTKVEIKRTVAAPSVFIFPPSDEQLKSGTASVVCLLNNFYPREAKVQWKVDNALQSGNSQESVTEQDSKDSTYSLSSTLTLSKADYEKHKVYACEVTHQGLSSPVTKSFNRGE
modifications: left off: a dimerising Fc or GST
binding affinity for M6PR, rank among the conjugates tested [1]: highest

B2: Compound I-11 (d4): "matuzumab conjugates (... matuzumab-Compound I-11(d4) ..." (conjugate)
heavy: B1 heavy
light: B1 light
modifications: left off: a dimerising Fc or GST
binding affinity for M6PR, rank among the conjugates tested [1]: lowest

Reference: patent US20230158155A1, “Cell Surface Receptor Binding Compounds and Conjugates” (priority 2020, published 2023)
